Results from ChEMBL document CHEMBL3046409, “Studies on radioprotective and antiviral activities of some bischalcone derivatives” (Med Chem Res, 2012).

Assays:
Buffalopox virus = assay: Antiviral activity against Buffalopox virus infected African green monkey Vero cells assessed as reduction of viral titer after 48 hr; format: functional
Camelpox virus = assay: Antiviral activity against Camelpox virus infected African green monkey Vero cells assessed as reduction of viral titer after 48 hr; format: functional
[1] = Cytotoxicity against Chlorocebus aethiops (African green monkey) Vero cells assessed as maximum non-toxic concentration after 24 hr; format: cell-based; conditions: chlorocebus sabaeus, read-out: Activity

## O=C1/C(=C/c2ccc(F)cc2)CC/C1=C\c1ccc(F)cc1
Buffalopox virus
  inhibition (INH): 73.69%
Camelpox virus
  inhibition (INH): 54.29%
[1]
  MNTC at 24 h: 0.0833 µg/mL
